≈ marks a conversion by molar mass, not a printed value.
What was measured:
Format in all cases: functional
Staphylococcus aureus [1] = test: Antibacterial activity against Staphylococcus aureus UC9218
Staphylococcus aureus [2] = test: Antibacterial activity against Staphylococcus aureus UC9218 in presence of 10% human serum
Staphylococcus aureus [3] = test: Antibacterial activity against Staphylococcus aureus RN4220 at 100 uM by transcription-translation assay

Compound	MIC (Staphylococcus aureus [1]) [µg/mL]	MIC (Staphylococcus aureus [2]) [µg/mL]	inhibition at 100 µM (Staphylococcus aureus [3]) [%]
Cn1c(C(=O)n2[nH]c(=O)c3cc(C#N)ccc32)cc2ccccc21	64 (≈ 202 µM)	> 128	49
N#Cc1ccc2c(c1)c(=O)[nH]n2C(=O)c1cc2cccc(S(=O)(=O)c3ccccc3)c2[nH]1	16 (≈ 36.2 µM)	> 128	–
N#Cc1ccc2c(c1)c(=O)[nH]n2C(=O)c1cncc(SCc2ccccc2)n1	> 128	> 128	7
O=C(c1cc(-c2ccccc2)on1)n1[nH]c(=O)c2cc(Br)ccc21	16 (≈ 41.6 µM)	> 128	42
N#Cc1ccc2c(c1)c(=O)[nH]n2C(=O)c1cc2ccccc2[nH]1	64 (≈ 212 µM)	> 128	99
N#Cc1ccc2c(c1)c(=O)[nH]n2C(=O)c1cnc(SCc2ccccc2)cn1	> 128	> 128	22
CN(c1ccc(Cl)cc1)S(=O)(=O)c1cc(Br)cc(C(=O)n2[nH]c(=O)c3cc(Br)ccc32)c1	> 128	> 128	29
O=C(c1cccc(S(=O)(=O)N2CCOCC2)c1)n1[nH]c(=O)c2cc(Br)ccc21	> 128	> 128	3
O=C(c1cccc(S(=O)(=O)N2CCOCC2)c1)n1[nH]c(=O)c2cc(Cl)ccc21	> 128	> 128	5
N#Cc1ccc2c(c1)c(=O)[nH]n2C(=O)c1cccc(S(=O)(=O)N2CCOCC2)c1	64 (≈ 155 µM)	64	10
CC(C)Sc1ccc(C(=O)n2[nH]c(=O)c3cc(Br)ccc32)cn1	> 128	> 128	49
O=C(c1ccc(S(=O)(=O)N2CCc3cc(Cl)ccc32)cc1)n1[nH]c(=O)c2cc(Cl)ccc21	16 (≈ 32.8 µM)	> 128	61
O=C(c1cncc(SCc2ccccc2)n1)n1[nH]c(=O)c2cc(Br)ccc21	32 (≈ 72.5 µM)	> 128	28
O=C(c1cnc(SCc2ccccc2)cn1)n1[nH]c(=O)c2cc(Br)ccc21	> 128	> 128	5
O=C(c1cc2cccc(S(=O)(=O)c3ccccc3)c2[nH]1)n1[nH]c(=O)c2cc(Br)ccc21	16 (≈ 32.2 µM)	128	–
N#Cc1ccc2c(c1)c(=O)[nH]n2C(=O)c1ccc(S(=O)(=O)N2CCc3cc(Cl)ccc32)cc1	64 (≈ 134 µM)	> 128	5
O=C(c1cccc(S(=O)(=O)N2CCc3cc(Cl)ccc32)c1)n1[nH]c(=O)c2ccc(Cl)cc21	8 (≈ 16.4 µM)	> 128	78
Cc1ccc2c(c1)c(=O)[nH]n2C(=O)c1cccc(S(=O)(=O)N2CCc3cc(Cl)ccc32)c1	16 (≈ 34.2 µM)	> 128	49
CN(c1ccc(Cl)cc1)S(=O)(=O)c1cccc(C(=O)n2[nH]c(=O)c3cc(Br)ccc32)c1	> 128	> 128	55

The remaining molecules from weak to strong by MIC (Staphylococcus aureus [1]), led by results:

MIC (Staphylococcus aureus [1]) [µg/mL]	MIC (Staphylococcus aureus [2]) [µg/mL]	Compound	inhibition at 100 µM (Staphylococcus aureus [3]) [%]
8 (≈ 16.4 µM)	> 128	O=C(c1ccc(S(=O)(=O)N2CCc3cc(Cl)ccc32)cc1)n1[nH]c(=O)c2ccc(Cl)cc21	86
8 (≈ 15.3 µM)	> 128	O=C(c1cccc(S(=O)(=O)N2CCc3cc(Cl)ccc32)c1)n1[nH]c(=O)c2cc(C(F)(F)F)ccc21	62
8 (≈ 15 µM)	> 128	O=C(c1cccc(S(=O)(=O)N2CCc3cc(Cl)ccc32)c1)n1[nH]c(=O)c2ccc(Br)cc21	67
8 (≈ 16.1 µM)	128	O=C(c1cccc(S(=O)(=O)N2CCc3ccccc32)c1)n1[nH]c(=O)c2cc(Br)ccc21	52
8 (≈ 15 µM)	> 128	O=C(c1ccc(S(=O)(=O)N2CCc3cc(Cl)ccc32)cc1)n1[nH]c(=O)c2cc(Br)ccc21	56
4 (≈ 8.76 µM)	64	Cn1c(C(=O)n2[nH]c(=O)c3cc(C#N)ccc32)cc2cccc(S(=O)(=O)c3ccccc3)c21	–
4 (≈ 7.51 µM)	128	O=C(c1cccc(S(=O)(=O)N2CCc3cc(Cl)ccc32)c1)n1[nH]c(=O)c2cc(Br)ccc21	20
4 (≈ 8.19 µM)	128	O=C(c1cccc(S(=O)(=O)N2CCc3cc(Cl)ccc32)c1)n1[nH]c(=O)c2cc(Cl)ccc21	80
4 (≈ 7.44 µM)	> 128	O=C(c1cccc(S(=O)(=O)N2CCc3cc(Cl)ccc32)c1)n1[nH]c(=O)c2cc(OC(F)(F)F)ccc21	78
2 (≈ 3.92 µM)	128	Cn1c(C(=O)n2[nH]c(=O)c3cc(Br)ccc32)cc2cccc(S(=O)(=O)c3ccccc3)c21	–
0.5 (≈ 1.12 µM)	8	N#Cc1ccc2c(c1)c(=O)[nH]n2C(=O)c1cccc(S(=O)(=O)N2CCc3ccccc32)c1	13

Source: ChEMBL document CHEMBL1152154, “Bacterial translation inhibitors, 1-acylindazol-3-ols as anthranilic acid mimics” (2008)
